In patent publication US10307411B2, “Use of cotinine in treating or preventing neurogenesis deficits and enhancing neurogenesis” (Department of Veterans Affairs, priority 2014, dated 2019):

Experiments:
[1] = test system: neurogenesis genes in the hippocampus of mice; test: Neurogenesis and neural stem cell RT-PCR array on hippocampus of mice subjected to forced swimming stress; type: in vivo
Description: Two-month-old male C57BU6J mice (The Jackson Laboratory, Bar Harbor, Me.), weighing 25-30 g were maintained on a 12-hours light/dark cycle (light on at 07:00) with ad libitum access to food and water and maintained at a regulated temperature of 25±1″C. Upon arrival mice were group-housed and acclimated for 7 days before any intervention.
Mice were randomly divided into three groups as follows: group 1 controls that were not exposed to stress (NES) and treated with vehicle (phosphate buffered saline, PBS); group 2 controls subjected to forced swimming stress (FSB) and treated with vehicle; group 3 subjected to forced swimming stress and treated with cotinine (FSA).
Cotinine ((5S)-1-methyl-5-(3-pyridyl) pyrrolidin-2-one; Sigma-Aldrich Corporation, St. Louis, Mo., USA) solutions were prepared by dissolving the powdered compound in sterile phosphate buffered saline (PBS), and vehicle (PBS). Mice were treated with vehicle or cotinine (5 mg/kg) via gavage. […] All investigators were blind to treatment groups and doses were chosen based on previously studies (Zeitlin, et al., (2012) Cotinine enhances the extinction of contextual fear memory and reduces anxiety after fear conditioning. Behav Brain Res, 228, 284-293.). Treatments were administered for 7 days before the induction of stress. For all animals, treatment continued from the onset of treatment until euthanasia.
To induce chronic stress, mice were subjected to repetitive forced swimming (FS) for six consecutive days, for six minutes each day, as described previously (Furukawa-Hibi, et al., (2011) The hydrophobic dipeptide Leu-lie inhibits immobility induced by repeated forced swimming via the induction of BDNF. Behav Brain Res. 2011 Jul. 7; 220(2):271-280). Each mouse was placed in an inescapable transparent plastic cylinder (40 centimeters (cm) high×20 cm in diameter) filled with water to a depth of 30 cm, for six minutes. Water temperature was maintained at 24-25° C. and water was changed between all trials. In all cases, following exposure, animals were retrieved, dried with a hand towel and returned to their home cages. Mice assigned to NES control group were removed from the animal housing facility and taken to the behavioral testing room during the same period of time than FS mice, but remained in their home cages during the FS period. In all experiments, no mice needed assistance to avoid drowning.
Following behavioral experimentation, euthanasia was performed via cervical dislocation under anesthesia with isofluorane (4% induction, 2% maintenance) by investigators not assigned to prior work with the mice blinded to the treatments. Whole brains were collected and immediately stored frozen at −80° C.
The hippocampi were dissected on ice and placed into RNAlater tubes (Life Technologies; Thermo Fisher Scientific, Waltham, Mass.). RNAlater is a proprietary solution which protects RNA in tissue samples from degradation to allow for analysis at a later date. RNase free conditions were created and maintained throughout the procedure by washing labware in a 0.1% DEPC solution followed by rinsing with RNase free water. Total RNA extraction and purification was performed using RNeasy Lipid Tissue Extraction Kit (Qiagen N.V., Venlon NL). Sample homogenization was performed using Kontes Pellet Pestle Cordless Motor and/or 20 gauge needle and syringe. Samples were extracted using a Qiazol/Chloroform extraction. The samples were purified on an RNeasy spin column using multiple washes. An on-column DNase incubation was performed in order to remove contaminating DNA. The entire extraction and purification step was performed twice to remove all contaminating DNA for samples ran on the neurogenesis arrays. Samples were eluted in RNase free water.
Nucleic acid quantification was performed on the RNA, to determine how many microliters of sample to add to the cDNA reaction, as the reaction requires a specific concentration of RNA to achieve optimal results. […]

[2] = Novel location recognition test (NOL), spatial recognition memory in rats subjected to CMF chemotherapy; type: in vivo, Wistar female rats; settings: CMF-treated rats, cotinine 5 mg/kg oral
Description: Wistar female rats (2-4 months of age, 200-300 g) (n=10/group) were obtained from Harlan laboratories. Rats were housed in pairs, kept at 12 h light/12 h dark cycle and maintained in an air-conditioned room at a temperature of 21±1° C. and relative humidity of 60±10%. Food and water were available ad libitum. All rats were acclimated to the Veterinary Medical Unit for 1 week and handled daily. Weight was recorded every 2 days to assess for dehydration induced by the chemotherapy regime. All procedures were approved by the Institutional Animal Care and Use (IACUC) committee of the Bay Pines Veterans Affairs (VA) Healthcare System, in accordance with VA and The Guide for the Care and Use of Laboratory Animals. […]
This task evaluates spatial recognition memory and is based on the preferential exploration of a displaced object by rodents able to detect a novel placement of an object after remembering each object's original positions (Ennaceur A, Delacour J (1988) A new one-trial test for neurobiological studies of memory in rats. 1: Behavioral data. Behav Brain Res 31(1):47-59). […] The discrimination index (DI), which is a measure of spatial recognition memory, was calculated as follows: time spent exploring the object in the new location/total time spent exploring both objects.
Differences among the means were analyzed using one-way analysis of variance (ANOVA). […]

[3] = test system: monocytes; settings: α7nAChR-dependent; cited from earlier work
[4] = stressed mice treated with cotinine compared to stressed mice treated with vehicle

## CN1C(=O)CC[C@H]1c1cccnc1 [cotinine, (5S)-1-methyl-5-(3-pyridyl) pyrrolidin-2-one]
[1]; FSA versus stressed vehicle-treated, each compared to non-stressed mice
  decrease in share of down-regulated neurogenesis genes: 17%
[1]; forced swimming stress + cotinine (FSA) compared to mice not exposed to stress
  neurogenesis genes down-regulated: 56%
[1]; hippocampi from cotinine-treated stressed mice compared to vehicle-treated stressed mice
  neurogenesis genes analyzed that were up regulated: 67%
[1]; hippocampus of cotinine-treated FS mice compared to vehicle-treated FS mice (p<0.01)
  VEGFa mRNA expression, RT-PCR assay: up-regulated
[1]; results from all three comparisons, 1.3-fold cut-off with opposite effect by cotinine
  number of neurogenesis genes with differential regulation: 15 genes
[1]; stressed mice treated with cotinine compared to stress control mice
  Errb2 expression up regulation: 1.3 fold
[1]; [4]
  Artn expression up regulation: 1.2 fold
  EGF expression up regulation: 1.5 fold
  Gdnf expression up regulation: 2.0 fold
  VEGFa expression up regulation: 1.3 fold
[2]
  ability to discriminate between old and new location of objects (discrimination index): restored the ability
[2]; p>0.05
  location discrimination level compared with control rats: indistinguishable from control rats
[3]
  inflammatory response to gram-negative bacteria (expression of TNF-α, IL-1β and IL-6): reduced the inflammatory response
